Key:
guinea pigs' skin = assay: Blocking effects against UV ray irradiated on guinea pigs' skin; type: in vivo, male Hartley guinea pigs; conditions: for UV ray blocking effect score: total score for 2.5% and 5% ointments, 6 irradiated sites each scored 0-4, complete blocking = 24, UV 3000 Lux for 90 s, read 24 hours after irradiation
Method: Each compound of the present invention and commercially available p-methoxy cinnamic acid-2-ethyl hexyl as a positive reference were mixed with an ointment base (Plastibase), and 2.5% (mass % of active ingredient) and 5% ointment were prepared for each. The belly area of male Hartley guinea pigs that were 6 to 10 weeks old was shaved, and then further close shaved using an electric shaver. The test animals were then anaesthetized by injecting pentobarbital sodium (30 mg/kg) in their abdominal cavity. Then, 100 mg of the base material, 2.5% ointment and the 5% ointment were respectively spread in 6 to 7 cm long/15 cm wide areas of the shaved belly area of the test animal starting from its head. 10 minutes after spreading, the skin was covered with a piece of felt in which 9 holes (3×3) with 1 cm diameter had been made. A UV ray (3000 Lux) was then irradiated for a 90 second period. 24 hours after the irradiation, the intensity of the red circular marks that had been produced were observed, and the blocking effect investigated. Note that, the evaluation of the UV ray blocking effect was carried out in accordance with the following evaluation criteria (score based on 5 level evaluation).
In advance, 99 types of related compound were prepared using the test method described above as 10% ointments including the compounds of the present invention (the compounds expressed by formula I) and the compounds that are the active ingredient of the UV ray protection agent of the present invention (the compounds expressed by formula I′). A screening test was performed, and 9 compounds that 100% blocked the UV rays selected. Then, lower concentration ointments were prepared for these 9 compounds and an investigation was carried out to test the UV ray protection effect thereof. Note that, as a reference compound, the results for p-methoxy cinnamic acid ethyl hexyl that is used as the active ingredient in commercially sold UV ray protection agents are also shown.

[1] = Acute toxicity resulting from single under skin injection in mice; type: in vivo, male ddY mice; conditions: male, ddY, mouse, in vivo, subcutaneous, 1 g/kg; single under skin injection, mice
Method: (§1) An investigation was carried out using 5 week old male ddY mice.
(§2) Each compound (250 mg) was placed in suspension using the same amount of Tween-80, and then diluted with physiologic saline (5 mL) to form a 5% suspension. Then, supersonic treatment was performed to create the specimen. 0.2 mL/10 g (1 g/kg) of the specimen was injected per body weight under the skin of the back portion of each mouse in groups of five mice. The behavior of the mice was then observed for 1 week after injection while the mice were fed. The body weight of the mice was measured on the 1st, 3rd, 6th and 7th days. After one week, an abdominal section was performed, and changes in the various internal organs and abnormality of the injected area checked for.

mice = assay: as above; type: in vivo, male ddY mice; conditions: single under skin injection 1 g/kg; for Case of death: groups of five mice; for Case of death / Observed items: observed 1 week; for body weight of the mice following injection: weighed on days 1, 3, 6, 7
Method: as §1, §2

Row | Compound | UV ray protection effect (in words) (guinea pigs' skin; 2.5% and 5% ointments, comparison within Table 1) | UV ray blocking effect score (guinea pigs' skin) | LD50 at 1 week [1] [mg/kg] | body weight by the 7th day following injection (mice) | Case of death (mice) | Observed items (mice) | body weight of the mice following injection (mice)
1 | O=C(Oc1cccc2ccccc12)c1ccccc1F [CU-9005] | strongest UV ray protection effect | 24 |  |  |  |  | 
2 | COc1cccc(C(=O)Oc2ccc(C)cc2)c1 [CU-5008] |  | 13 | ≥ 1000 | recovered to its level at the time of the first injection | 0/5 | Weight reduction | decreased
3 | COc1cccc(C(=O)Oc2ccccc2C)c1 [CU-2102] |  | 15 |  |  |  |  | 
4 | Cc1ccccc1OC(=O)c1ccc2ccccc2c1 [CU-2010, o-tolyl-2-naphthyl carboxylate] |  | 21 |  |  |  |  | 
5 | Cc1ccc([N+](=O)[O-])cc1OC(=O)C=Cc1ccccc1 [CU-11005] |  | 12 |  |  |  |  | 
6 | C/C=C/C(=O)Nc1ccccc1C(=O)O [CU-1008] |  | 20 |  |  |  |  | 
7 | Cc1ccc(OC(=O)c2ccc3ccccc3c2)cc1 [CU-5004, p-tolyl-2-naphthyl carboxylate] |  | 20 | ≥ 1000 | recovered to its level at the time of the first injection | 0/5 | Weight reduction | decreased
8 | O=C(Oc1ccc2ccccc2c1)c1ccccc1F [CU-10005] |  | 7 | ≥ 1000 |  | 0/5 | No abnormalities | increased following injection in the same manner as the body weight of the mice in a reference group
9 | CCCCC(CC)COC(=O)C=Cc1ccc(OC)cc1 (stereo not drawn) [p-Methoxy-cinnamic acid-2-ethyl hexyl, reference compound] |  | 18 |  |  |  |  | 
10 | COc1ccc(C(=O)Oc2ccc(C)cc2)cc1 [CU-5009, p-tolyl anisate] |  | 19 | ≥ 1000 | recovered to its level at the time of the first injection | 0/5 | Weight reduction | decreased

From US7361785B2, “Compound protecting against ultraviolet rays” (Lead Chemical Co., Ltd., priority 2002, dated 2008)
